Values of other authors as cited in patent US20140170075A1, “NON-INVASIVE IMAGING METHODS FOR PATIENT SELECTION FOR TREATMENT WITH NANOPARTICULATE THERAPEUTIC AGENTS” (Merrirnack Pharmaceuticals, Inc., priority 2012, published 2014).

Test system: cancer cell proliferation
Conditions: more active than irinotecan

In the case of `CCc1c2c(nc3ccc(O)cc13)-c1cc3c(c(=O)n1C2)COC(=O)[C@]3(O)CC` [SN-38], the “activity as an inhibitor of cancer cell proliferation relative to irinotecan” value is listed as 100-1000 ×.
